Source: patent publication US10195270B2, “Peptide/β-1,3-glucan complex and production method thereof and pharmaceutical composition containing peptide/β-1,3-glucan complex” (Japan Science and Technology Agency, priority 2014, dated 2019)

Key:
spleen cells of mice [1] = assay: Antigenic peptide-specific IFN-γ production (ELISA) by OVA peptide-stimulated spleen cells of immunised mice (Examples 3 and 6); assay type: in vivo, mouse; conditions: Example 3, FIG. 4; C57BL/6 mice, intradermal once; spleen cells one week after administration, stimulated with OVA peptide 10 μg/mL, ELISA after 24 hours
Description: (1) One of the following was intradermally administered once to mice (C57BL/6 mouse, male, 7 weeks old): (1) antigenic peptide (OVA peptide, 5 μg) having an ovalbumin (OVA)-derived amino acid sequence (SEQ ID No. 1), (2) […] (5 μg) and CpG DNA (base sequence: […] (SEQ ID No. 2), 30 μg), (3) OVA peptide-dA40(S)/SPG complex (see Example 1, 5 μg), (4) OVA peptide-dA40(S)/SPG complex (prepared as in Example 1, 5 μg) and CpG DNA (30 μg), and (5) OVA peptide-dA40(S)/SPG complex (5 μg) and incomplete Freund's adjuvant (IFA). An investigation was performed to see whether antigen-specific interferon-γ (IFN-γ) was induced by, one week after administration, harvesting spleen cells from the mice, placing the cells in 96 wells (1.0×10^6 cells/well), and then stimulating the cells using OVA peptide (10 μg/mL).
Then 24 hours after stimulating the spleen cells by OVA peptide, enzyme-linked immunosorbent assay (ELISA) was used to quantitatively measure IFN-γ in the culture medium. […]
Then 24 hours after stimulating the spleen cells by OVA peptide, enzyme-linked immunosorbent assay (ELISA) was used to quantitatively measure IFN-γ in the culture medium.

spleen cells of mice [2] = assay: Fraction of OVA peptide-specific CD8-positive (cytolytic) T cells in spleen cells of immunised mice, flow cytometer (Examples 4 and 7); assay type: in vivo, mouse; conditions: Example 4, FIG. 5; spleen cells of Example 3 mice stimulated with OVA peptide-dA40(S)/SPG complex, cultured 6 days
Description: Mouse spleen cells were harvested from mice to which had been intradermally administered in Example 3 the (1) OVA peptide, (2) OVA peptide and CpG DNA, (3) OVA peptide-dA40(S)/SPG complex, or (4) OVA peptide-dA40(S)/SPG complex and CpG DNA. The harvested cells were stimulated using OVA peptide-dA40(S)/SPG complex and were cultured for 6 days. Then after antibody staining, a flow cytometer was used to evaluate the fraction of T cells that had cytotoxic specificity (CD8 positive) for OVA peptide.
The fraction of OVA peptide-specific CD8-positive T cells was low for the case (peptide) in which OVA peptide alone was administered, the case (peptide+CpG) in which OVA peptide and CpG DNA were simultaneously administered, and the case (peptide/SPG) in which OVA peptide-dA40(S)/SPG complex alone was administered.
The (1) OVA peptide, (2) OVA peptide and CpG DNA, (3) OVA peptide and CpG DNA-dA40(S)/SPG complex, or (4) OVA peptide-dA40(S)/CpG DNA-dA40(S)/SPG ternary complex prepared in Example 5 of Example 6 was intradermally administered, mouse spleen cells were harvested and stimulated using OVA peptide-dA40(S)/SPG complex, and the stimulated cells were cultured for 6 days. Then after antibody staining, a flow cytometer was used to evaluate the fraction of T cells that had cytotoxic specificity (CD8 positive) for OVA peptide.

Sequence: SIINFEKL (SEQ ID No. 1) (listed as Homo sapiens) [OVA peptide]
- OVA peptide-specific interferon (IFN-γ) reaction (spleen cells of mice [1]): No OVA peptide-specific interferon reaction was observed
- fraction of OVA peptide-specific CD8-positive T cells among the spleen cells (spleen cells of mice [2]): low
